# Measured values taken from patent US6919298B2, “Enhanced herbicide composition” (Valent Biosciences Corporation, priority 2002, dated 2005).
# “And” between values parts separate entries of the source, which are not always exact repeats. Identical values can stand only once.
# Legend:
# [1] = test system: tobacco; assay: Spray (tank mix) phytotoxicity/herbicidal effect on greenhouse tobacco; assay type: in vivo, Nicotiana tabacum (tobacco); conditions: for Phytotoxicity at 4d post-spraying: Percent Leaf Area Affected / Phytotoxicity at 6d post-spraying: Percent Leaf Area Affected: paraquat 187 mg/l and/or Ethephon 1000 ul/l
# Method: (§1) In all experiments, deionized ultra-pure water was used in preparing solutions. Spray solutions were used as soon as possible after mixing.
# (§2) COC was added to all spray solutions at a rate of 0.25% (v/v). For all treatments containing both an herbicide and an SAR inducer, these materials were mixed and applied in a single spray solution (commonly known as a tank mix). After spraying, plants were moved to the greenhouse and arranged in a randomized complete block experimental design. Plants were evaluated for phytotoxicity/herbicidal effects after spraying by assessing damage according to percent leaf area affected.
# (§3) All the data were subject to an analysis of variance, and the mean separations were determined with Duncan's new multiple range test at α=0.05. The present invention may be illustrated by the following representative examples: […]
# [2] = test system: lambsquarter (Chenopodium album); assay: Spray (tank mix) phytotoxicity/herbicidal effect on lambsquarter; assay type: in vivo
# Method: as §1, §2, §3
# [3] = test system: giant foxtail; assay: Spray (tank mix) phytotoxicity/herbicidal effect on giant foxtail; assay type: in vivo; conditions: monocotyledonous plant species (giant foxtail, Table 2)
# Method: as §1, §2, §3
# [4] = test system: tobacco; set-up: species or system Nicotiana tabacum (tobacco); conditions: in vivo
# Method: as §2, §3
# [5] = test system: tobacco; set-up: species or system Nicotiana tabacum (tobacco); conditions: in vivo; remark: listed apart in the source
# Method: as §2
# All the data were subject to an analysis of variance, and the mean separations were determined with Duncan's new multiple range test at α=0.05. The present invention may be illustrated by the following representative examples:
# In this experiment, the plants were treated and kept in the dark for 48 hours from the first spray treatment to delay the light-dependent effects of paraquat.
# [6] = tobacco, added to the paraquat spray solution
# [7] = tobacco, Actigard 187 mg/l, with or without paraquat 150 mg/l, COC 0.25%
# [8] = tobacco, Actigard 935 mg/l, with or without paraquat 150 mg/l, COC 0.25%
# [9] = lambsquarter, Actigard 187 mg/l, with or without paraquat 150 mg/l, COC 0.25%
# [10] = lambsquarter, Actigard 935 mg/l, with or without paraquat 150 mg/l, COC 0.25%
compound,measurement,setting,value
"O=C(O)c1cc(F)ccc1O [5-FSA, 5-fluorosalicylate]",Phytotoxicity at 6d,[1]; in vivo,2.3 B
same,Phytotoxicity at 8d,[1]; in vivo,2.8 B
same,Phytotoxicity at 11d,[1]; in vivo,2.0 B
same,Safening from paraquat herbicide damage (in words),[1]; [6],able to safen tobacco from paraquat
"CSC(=O)c1cccc2nnsc12 [Actigard, Benzo(1,2,3)thiadiazole-7-carbothioic acid-S-methyl ester]",Phytotoxicity at 2d: Percent Leaf Area Affected,[1]; [7],0 A Percent
same,Phytotoxicity at 4d: Percent Leaf Area Affected,[1]; [7],0 A Percent
same,Phytotoxicity at 7d: Percent Leaf Area Affected,[1]; [7],0 A Percent
same,Phytotoxicity at 2d: Percent Leaf Area Affected,[1]; [8],1 A Percent
same,Phytotoxicity at 4d: Percent Leaf Area Affected,[1]; [8],0 A Percent
same,Phytotoxicity at 7d: Percent Leaf Area Affected,[1]; [8],0 A Percent
same,Safening from paraquat herbicide damage (in words),[1]; [6],safened the plants from paraquat herbicide damage
same,Phytotoxicity at 2d: Percent Leaf Area Affected,[2]; [9],0 A Percent
same,Phytotoxicity at 4d: Percent Leaf Area Affected,[2]; [9],0 A Percent
same,Phytotoxicity at 7d: Percent Leaf Area Affected,[2]; [9],0 A Percent
same,Phytotoxicity at 2d: Percent Leaf Area Affected,[2]; [10],0 A Percent
same,Phytotoxicity at 4d: Percent Leaf Area Affected,[2]; [10],0 A Percent
same,Phytotoxicity at 7d: Percent Leaf Area Affected,[2]; [10],0 A Percent
same,Protection from paraquat damage (in words),"[2]; lambsquarter, tank mixed or applied with paraquat",did show safening
"c1cc[n+]2c(c1)-c1cccc[n+]1CC2 [Diquat, 1,1′-ethylene-2,2′-bipyridyidiylium ion]",Phytotoxicity at 1d,[1]; in vivo,3.3. D
same,Phytotoxicity at 4d,[1]; in vivo,4.3 C
same,Phytotoxicity at 6d,[1]; in vivo,4.3 C
same,Phytotoxicity at 12d,[1]; in vivo,3.9 C
"O=P(O)(O)CCCl [Ethephon, (2-choroethyl) phosphonic acid]",Safening from paraquat with pre-treatment with 1-MCP (in words),"[1]; tobacco, 1-MCP, an inhibitor of ethylene perception",observed regardless of pre-treatment with 1-MCP
same,Safening from paraquat herbicide damage (in words),[1]; [6],safened the plants from paraquat herbicide damage
same,Phytotoxicity at 4d post-spraying: Percent Leaf Area Affected,"[1]; tobacco, COC 0.25%",0 A Percent
same,Phytotoxicity at 6d post-spraying: Percent Leaf Area Affected,"[1]; tobacco, COC 0.25%",0 A Percent
"O=C([O-])c1ccccc1O.[Na+] [NaSA, sodium salicylate]",Safening from paraquat herbicide damage (in words),[1]; in vivo,safened the plants from paraquat herbicide damage
same,Safening against diquat (in words),"[1]; tobacco, Table 3",able to safen tobacco against the herbicide diquat
same,Safening from paraquat damage (in words),[3],safen plants from paraquat damage
same,Protection from paraquat damage (in words),[4],significant protection from paraquat damage
same,Safening from paraquat (in words),[5],resulted in safening
same,Protection from paraquat damage (in words),[2]; in vivo,limited or no protection from paraquat damage
"C[n+]1ccc(-c2cc[n+](C)cc2)cc1 [Paraquat, 1,1′-dimethyl-4,4′-bipyridinium ion]",Phytotoxicity at 1d,[1]; in vivo,4.1 E
same,Phytotoxicity at 1d: Percent Leaf Area Affected,[1]; in vivo,75 E Percent
same,Phytotoxicity at 2d: Percent Leaf Area Affected,[1]; in vivo,61.25 E Percent and 65 E Percent
same,Phytotoxicity at 4d: Percent Leaf Area Affected,[1]; in vivo,62.5 F Percent
same,Phytotoxicity at 5d: Percent Leaf Area Affected,[1]; in vivo,83.75 E Percent
same,Phytotoxicity at 7d: Percent Leaf Area Affected,[1]; in vivo,50 D Percent and 96.5 D Percent
same,Phytotoxicity at 8d,[1]; in vivo,5.0 C
same,Phytotoxicity at 10d: Percent Leaf Area Affected,[1]; in vivo,99 F Percent
same,Phytotoxicity at 11d,[1]; in vivo,5.0 E
same,Phytotoxicity at 12d,[1]; in vivo,4.2 C
same,Phytotoxicity at 4d post-spraying: Percent Leaf Area Affected,"[1]; tobacco, COC 0.25%",95 C Percent
same,Phytotoxicity at 6d post-spraying: Percent Leaf Area Affected,"[1]; tobacco, COC 0.25%",97.5 C Percent
same,Phytotoxicity at 1d post-spraying,[4],3.7 D
same,Phytotoxicity at 4d post-spraying,[4],3.8 D
same,Phytotoxicity at 6d post-spraying,[4],3.4 E
same,Phytotoxicity after 3 days in the light (5 days after initial spray),[5],5.0 D
same,Phytotoxicity after 12 days in the light (14 days after initial spray),[5],5.0 D
same,Phytotoxicity at 2d,[2]; in vivo,3.9 C
same,Phytotoxicity at 2d: Percent Leaf Area Affected,[2]; in vivo,72.5 C Percent
same,Phytotoxicity at 4d,[2]; in vivo,3.9 BC
same,Phytotoxicity at 4d: Percent Leaf Area Affected,[2]; in vivo,72.5 BC Percent
same,Phytotoxicity at 7d,[2]; in vivo,3.9 BC
same,Phytotoxicity at 7d: Percent Leaf Area Affected,[2]; in vivo,72.5 BC Percent
